# Results as given in PubChem BioAssay (NCI).
#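 Results reflect a 48-hour exposure of cells in 96-well plates to compound at five concentrations. The concentration for full growth arrest is given as TGI.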
# How the values were obtained:
# Test in all cases: inhibition of tumour cell growth, NCI panel, 48 h
# [1] = tested on: A549 NSCLC
# [2] = tested on: HCT-15 colon
# [3] = tested on: NCI-H226 lung
# [4] = tested on: SF-268 CNS
# [5] = tested on: HL-60(TB) leukemia
# [6] = tested on: UACC-62 melanoma
# [7] = tested on: SR leukemia
# [8] = tested on: SF-295 CNS
# [9] = tested on: U251 CNS
# [10] = tested on: HCT-116 colon
# [11] = tested on: LXFL 529 NSCLC
# [12] = tested on: 786-0 renal
# [13] = tested on: HT29 colon
# [14] = tested on: OVCAR-4 ovarian
# [15] = tested on: CAKI-1 renal
# [16] = tested on: NCI/ADR-RES ovarian
# [17] = tested on: HOP-92 NSCLC
# [18] = tested on: HS 578T breast
# [19] = tested on: BT-549 breast
# [20] = tested on: MCF7 breast
Structure (SMILES),TGI [1],TGI [2],TGI [3],TGI [4],TGI [5],TGI [6],TGI [7],TGI [8],TGI [9],TGI [10],TGI [11],TGI [12],TGI [13],TGI [14],TGI [15],TGI [16],TGI [17],TGI [18],TGI [19],TGI [20]
Cc1ccc(NC(=O)CSc2nnc(-c3ccc(N=Cc4ccc(Cl)cc4)cc3)o2)cc1,> 100 µM,> 100 µM,> 100 µM,> 100 µM,> 100 µM,> 100 µM,> 100 µM,> 100 µM,> 100 µM,> 100 µM,> 100 µM,> 100 µM,> 100 µM,> 100 µM,–,–,–,–,–,–
CCC1CCc2c(c(=O)oc3c2cc(OC)c2cccc(OC)c23)C1 (stereo unspecified),> 100 µM,> 100 µM,> 100 µM,> 100 µM,69.6 µM,> 100 µM,> 100 µM,> 100 µM,> 100 µM,> 100 µM,> 100 µM,> 100 µM,> 100 µM,> 100 µM,> 100 µM,–,–,–,–,–
Ic1cccc(/C=C/CN2CCN(CCOC(c3ccccc3)c3ccccc3)CC2)c1,45 µM,34.4 µM,40.2 µM,> 100 µM,30.9 µM,37.4 µM,28.9 µM,33.1 µM,29.7 µM,26.8 µM,–,33.7 µM,30.3 µM,51.1 µM,41.4 µM,34.7 µM,29.4 µM,76.2 µM,31.4 µM,30.5 µM
O=C1c2cccc3cccc(c23)C2NCCCN12 (stereo unspecified),> 100 µM,> 100 µM,> 100 µM,> 100 µM,> 100 µM,> 100 µM,> 100 µM,> 100 µM,> 100 µM,> 100 µM,–,> 100 µM,> 100 µM,> 100 µM,> 100 µM,> 100 µM,> 100 µM,> 100 µM,> 100 µM,> 100 µM
S=c1[nH]c(=S)c2nnn(-c3ccccc3)c2[nH]1,> 100 µM,> 100 µM,> 100 µM,> 100 µM,> 100 µM,> 100 µM,> 100 µM,–,> 100 µM,4.49 µM,> 100 µM,> 100 µM,> 100 µM,–,> 100 µM,–,> 100 µM,–,–,–
CCN1CCC(O)(/C=C/c2ccc(C)cc2)C(C(=O)/C=C/c2ccc(C)cc2)C1 (stereo unspecified),21.4 µM,16.2 µM,29 µM,24.6 µM,5.15 µM,12.3 µM,6.84 µM,22.9 µM,9.24 µM,4.63 µM,–,4.29 µM,6.89 µM,23 µM,8.1 µM,8.03 µM,19.6 µM,7.55 µM,13.7 µM,6.36 µM
O=C(/C=C/c1ccc(OCc2cccc(Cl)c2)cc1)NO,51.2 µM,20.8 µM,35.6 µM,> 100 µM,35.9 µM,27.9 µM,11.3 µM,50.1 µM,47.9 µM,25.8 µM,–,23.9 µM,28.2 µM,38 µM,34.2 µM,23.3 µM,33.8 µM,> 100 µM,80.7 µM,> 100 µM
Nc1nc(NCC2(CO)CC2)cc(=O)[nH]1,> 100 µM,> 100 µM,> 100 µM,> 100 µM,> 100 µM,> 100 µM,> 100 µM,> 100 µM,> 100 µM,> 100 µM,–,> 100 µM,> 100 µM,> 100 µM,> 100 µM,> 100 µM,> 100 µM,> 100 µM,> 100 µM,> 100 µM
Cc1ccc(-c2n[nH]c(=O)n2/N=C\c2ccc([N+](=O)[O-])cc2)cc1,> 100 µM,> 100 µM,> 100 µM,> 100 µM,97.6 µM,> 100 µM,> 100 µM,> 100 µM,> 100 µM,> 100 µM,–,> 100 µM,> 100 µM,> 100 µM,> 100 µM,> 100 µM,> 100 µM,> 100 µM,> 100 µM,> 100 µM
CC1=CCC(C)=Nc2nc3ccccc3n21,> 100 µM,> 100 µM,> 100 µM,> 100 µM,> 100 µM,> 100 µM,> 100 µM,> 100 µM,> 100 µM,> 100 µM,–,> 100 µM,> 100 µM,> 100 µM,> 100 µM,> 100 µM,> 100 µM,> 100 µM,> 100 µM,> 100 µM
